The source of these data is US8318762B2, “Pyrazolospiroketone acetyl-CoA carboxylase inhibitors” (Pfizer Inc., priority 2008, dated 2012).

The target in one assay is rat liver ACC (Rattus norvegicus, UniProt P11497). Format: biochemical. The note with it: rat liver ACC radio enzymatic assay. The protocol:
[1] Preparation of rat liver ACC. Rat liver ACC was obtained from rat liver based upon standard procedures such as those described by Thampy and Wakil (J. Biol. Chem. 260: 6318-6323; 1985) using the following method.
Male CD rats weighing 150-200 g were fasted for 18-24 hours and then fed a high sucrose diet (AIN-76A rodent diet; Cat # D10001, Research Diets Inc., New Brunswick, N.J.), for 3 days at which time they were sacrificed by CO2 asphyxiation. The livers were removed, rinsed in ice-cold phosphate-buffered saline (PBS), and homogenized in 5 volumes of homogenization buffer (50 mM potassium phosphate, pH 7.5, 10 mM EDTA, 10 mM 2-mercaptoethanol, 2 mM benzamidine, 0.2 mM phenylmethylsulfonylfluoride (PMSF), 5 mg/L each leupeptin, aprotinin, and antitrypsin) in a Waring® blender for 1 minute at 4° C. All subsequent operations were carried out at 4° C. The homogenate has made 3% with respect to polyethylene glycol (PEG) by the addition of 50% PEG solution and centrifuged at 20,000×g for 15 minutes. The resulting supernatant was adjusted to 5% PEG with the addition of 50% PEG solution and stirred for 5 minutes. The pellet (contains ACC activity) was collected by centrifugation at 20,000×g for 20 minutes, rinsed with ice-cold doubly distilled water to remove excess PEG and re-suspended in one-fourth the original homogenate volume with homogenization buffer. Ammonium sulfate (200 g/liter) was slowly added with stirring. After 45 minutes the enzyme is collected by centrifugation for 30 minutes at 20,000×g, re-suspended in 10 mL of 50 mM HEPES, pH7.5, 0.1 mM DTT, 1.0 mM EDTA, and 10% glycerol and desalted on a Sephadex™ G-25 column (2.5 cm×50 cm) (Pharmacia, Piscataway N.J. now GE Healthcare) equilibrated with the same buffer. The desalted enzyme preparation was stored in aliquots at −70° C. Immediately prior to use, frozen rat liver ACC aliquots were thawed, diluted to 500 μg/mL in buffer containing 50 mM HEPES, pH7.5, 10 mM MgCl2, 10 mM tripotassium citrate, 2.0 mM dithiothreitol (DTT), and 0.75 mg/mL fatty acid-free bovine serum albumin (BSA) and pre-incubated at 37° C. for 30 minutes.
[2] Measurement of rat liver ACC inhibition. For measurement of ACC activity and assessment of ACC inhibition, test compounds were dissolved in dimethylsulfoxide (DMSO) and 1 μL aliquots were added to a clear bottom, 96-well plates (Perkin-Elmer PN#1450-514). Control wells contain 1 μL of DMSO alone or 1 μL of high inhibition compound. The enzyme obtained from rat liver as described above was activated in Enzyme buffer at 37° C. for 30 minutes prior to addition to compound plate. All wells receive 75 μL of activated enzyme (1.33×) in a buffer containing 50 mM HEPES, pH7.5, 7.5 mM MgCl2 7.5 mM tripotassium citrate, 2 mM DTT, 50 mg/mL BSA. The activated enzyme was pre-incubated with the cmpd for 10 minute prior to initiating the reaction through the addition of 25 μL of substrate solution containing 50 mM HEPES, pH7.5, 7.5 mM MgCl2 7.5 mM tripotassium citrate, 2 mM DTT, 50 mg/mL BSA, 120 μM acetyl-CoA, 8.0 mM ATP, 38.4 mM KHCO3, and 1.6 mM NaH[^14C]O3 ([…]). The final substrate concentrations in the reaction were 30 μM Acetyl-CoA, 9.6 mM KHCO3, 0.4 mM NaH[^14C]O3, and 2 mM ATP. The reaction was terminated after 10 mins by the addition of 25 μL 3N HCl and the plates were dried at 50° C. for a minimum 20 hrs. 30 μL of water was added to the dried plate and mixed for 5 minutes. 95 μL of Optiphase Supermix liquid scintillation fluid (Perkin Elmer, Waltham, Mass.) was added and the plates are mixed for 20 minutes. Incorporation of ^14C into MCoA was measured using a Wallac Trilux 1450 Microbeta LSC luminescence counter.

The target in the next assay is T1, recombinant human ACC2 (Homo sapiens, UniProt O00763).
T1 construct: a full length Cytomax clone of ACC2 was purchased from Cambridge Bioscience Limited; made in house; host or cells: CHO cells (tetracycline induction, pcDNA5 FRT TO-TOPO); purified on a Softlink Soft Release Avidin column
T1 sequence (O00763 whole entry): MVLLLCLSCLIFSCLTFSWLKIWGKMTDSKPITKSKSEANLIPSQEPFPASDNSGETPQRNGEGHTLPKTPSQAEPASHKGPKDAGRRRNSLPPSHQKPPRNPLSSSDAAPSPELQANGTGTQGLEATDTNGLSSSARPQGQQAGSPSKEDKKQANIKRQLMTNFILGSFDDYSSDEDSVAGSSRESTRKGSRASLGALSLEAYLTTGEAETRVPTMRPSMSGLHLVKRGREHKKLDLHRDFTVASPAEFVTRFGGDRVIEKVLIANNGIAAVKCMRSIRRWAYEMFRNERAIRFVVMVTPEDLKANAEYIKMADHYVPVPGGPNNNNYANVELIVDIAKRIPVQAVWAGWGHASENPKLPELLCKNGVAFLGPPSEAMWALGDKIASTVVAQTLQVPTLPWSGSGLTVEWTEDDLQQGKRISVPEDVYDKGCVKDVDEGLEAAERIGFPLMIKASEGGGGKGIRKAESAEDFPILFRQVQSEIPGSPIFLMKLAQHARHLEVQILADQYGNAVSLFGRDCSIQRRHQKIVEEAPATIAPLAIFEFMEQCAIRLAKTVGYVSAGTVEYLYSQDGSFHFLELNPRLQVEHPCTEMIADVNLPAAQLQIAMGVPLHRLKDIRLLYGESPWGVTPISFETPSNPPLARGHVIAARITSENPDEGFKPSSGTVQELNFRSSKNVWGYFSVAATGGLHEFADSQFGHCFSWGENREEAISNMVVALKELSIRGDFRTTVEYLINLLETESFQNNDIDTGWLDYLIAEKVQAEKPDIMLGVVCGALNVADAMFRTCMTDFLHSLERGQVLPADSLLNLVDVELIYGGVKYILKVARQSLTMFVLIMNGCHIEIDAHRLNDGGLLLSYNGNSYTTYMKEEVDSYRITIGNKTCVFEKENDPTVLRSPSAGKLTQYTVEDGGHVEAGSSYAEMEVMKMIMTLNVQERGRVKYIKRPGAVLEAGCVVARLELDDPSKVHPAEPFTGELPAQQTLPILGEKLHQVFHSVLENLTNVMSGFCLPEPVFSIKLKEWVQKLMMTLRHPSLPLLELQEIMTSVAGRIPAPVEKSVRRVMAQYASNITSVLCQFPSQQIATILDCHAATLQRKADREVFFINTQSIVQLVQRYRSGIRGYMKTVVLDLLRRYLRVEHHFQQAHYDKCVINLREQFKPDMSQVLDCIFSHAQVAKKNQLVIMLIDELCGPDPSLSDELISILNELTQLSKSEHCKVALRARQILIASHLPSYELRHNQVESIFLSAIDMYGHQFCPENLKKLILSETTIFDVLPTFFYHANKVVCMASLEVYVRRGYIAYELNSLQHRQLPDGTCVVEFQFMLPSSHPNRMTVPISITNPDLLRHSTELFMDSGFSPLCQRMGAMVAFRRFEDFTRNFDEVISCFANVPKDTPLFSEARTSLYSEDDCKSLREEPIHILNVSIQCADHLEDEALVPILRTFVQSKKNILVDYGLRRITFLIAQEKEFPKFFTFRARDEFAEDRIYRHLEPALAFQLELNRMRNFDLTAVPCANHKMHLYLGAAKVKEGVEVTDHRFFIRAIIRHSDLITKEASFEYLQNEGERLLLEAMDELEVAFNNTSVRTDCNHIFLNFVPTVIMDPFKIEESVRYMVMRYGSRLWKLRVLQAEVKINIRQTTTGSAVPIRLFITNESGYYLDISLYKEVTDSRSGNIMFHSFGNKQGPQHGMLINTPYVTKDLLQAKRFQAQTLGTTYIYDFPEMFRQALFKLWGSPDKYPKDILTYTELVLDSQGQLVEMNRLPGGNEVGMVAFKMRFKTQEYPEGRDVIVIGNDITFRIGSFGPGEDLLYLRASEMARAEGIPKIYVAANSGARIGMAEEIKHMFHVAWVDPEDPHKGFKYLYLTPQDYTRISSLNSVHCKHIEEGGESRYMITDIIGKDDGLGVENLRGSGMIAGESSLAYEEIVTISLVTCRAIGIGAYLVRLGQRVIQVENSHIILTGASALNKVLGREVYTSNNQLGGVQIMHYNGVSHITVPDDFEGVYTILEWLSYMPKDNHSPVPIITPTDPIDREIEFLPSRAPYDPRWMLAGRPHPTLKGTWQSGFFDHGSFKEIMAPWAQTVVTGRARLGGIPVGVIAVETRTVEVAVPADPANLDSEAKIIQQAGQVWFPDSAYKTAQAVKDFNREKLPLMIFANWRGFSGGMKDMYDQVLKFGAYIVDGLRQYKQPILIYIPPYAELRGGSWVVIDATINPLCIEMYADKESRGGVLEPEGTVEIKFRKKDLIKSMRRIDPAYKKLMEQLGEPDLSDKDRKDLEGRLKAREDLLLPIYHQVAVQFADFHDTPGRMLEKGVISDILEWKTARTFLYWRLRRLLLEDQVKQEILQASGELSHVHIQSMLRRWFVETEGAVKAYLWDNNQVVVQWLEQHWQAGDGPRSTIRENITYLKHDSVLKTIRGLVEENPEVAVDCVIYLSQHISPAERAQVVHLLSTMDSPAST
The assay is described as follows: Measurement of human ACC2 inhibition (recombinant hACC2 Transcreener ADP detection FP assay). As to conditions: recombinant hACC2 transcreener assay; read-out: rhACC2 IC50. Format: biochemical. A digest of the protocol:
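Purified hACC2 from tetracycline-induced CHO cells (avidin-column eluate) was run in 50 mM HEPES pH7.5, 5 mM MgCl2, 5 mM citrate, 2 mM DTT, 0.5 mg/mL BSA with 30 μM acetyl-CoA, 50 μM ATP and 8 mM KHCO3. Reaction lasted 1 hour at room temperature; ADP was detected by Transcreener FP after another 1 hour.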

For assay [1], the system named is malonyl-CoA levels in liver. The assay is described as follows: Acute in vivo assessment of ACC inhibition: malonyl-CoA levels in liver tissue. Further details: species or system male Sprague-Dawley Rats. As to conditions: relative to chow-fed vehicle control group, % decrease +/- SEM. The method, then: (§1) The ACC inhibitory activity of the compound of the present invention can be confirmed in vivo by evaluation of their ability to reduce malonyl-CoA levels in liver and muscle tissue from treated animals.
(§2) Measurement of malonyl-CoA production inhibition in experimental animals. In this method, male Sprague-Dawley Rats, maintained on standard chow and water ad libitum (225-275 g), were randomized prior to the study. Animals were either fed, or fasted for 18 hours prior to the beginning of the experiment. Two hours into the light cycle the animals were orally dosed with a volume of 5 mL/kg, (0.5% methyl cellulose; vehicle) or with the appropriate compound (prepared in vehicle). Fed vehicle controls were included to determine baseline tissue malonyl-CoA levels while fasted animals were included to determine the effect fasting had on malonyl-CoA levels. One hour after compound administration the animals were asphyxiated with CO2 and the tissues were removed. Specifically, blood was collected by cardiac puncture and placed into BD Microtainer tubes containing EDTA (BD Biosciences, NJ), mixed, and placed on ice. Plasma was used to determine drug exposure. Liver and quadriceps were removed, immediately freeze-clamped, wrapped in foil and stored in liquid nitrogen.
(§3) Tissues were pulverized under liquid N2 to ensure uniformity in sampling. Malonyl-CoA was extracted from the tissue (150-200 mg) with 5 volumes 10% […] in Lysing Matrix A (MP Biomedicals, PN 6910) in a FastPrep FP120 (Thermo Scientific, speed=5.5; for 45 seconds). The supernatant containing malonyl-CoA was removed from the cell debris after centrifugation at 15000×g for 30 minutes (Eppendorf Centrifuge 5402). Samples were stably frozen at −80 C until analysis is completed.
(§4) Analysis of malonyl CoA levels in liver and muscle tissue can be evaluated using the following methodology.
(§5) The method utilizes the following materials: Malonyl-CoA tetralithium salt and malonyl-^13C3-CoA trilithium salt which were purchased from Isotec (Miamisburg, Ohio, USA), sodium perchlorate (Sigma, cat no. 410241), trichloroacetic acid (ACROS, cat no. 42145), phosphoric acid (J. T. Baker, cat no. 0260-01), ammonium formate (Fluke, cat no. 17843), methanol (HPLC grade, J. T. Baker, cat no. 9093-33), and water (HPLC grade, J. T. Baker, 4218-03) were used to make the necessary mobile phases. Strata-X on-line solid phase extraction columns, 25 μm, 20 mm×2.0 mm I.D (cat no. 00M-S033-B0-CB) were obtained from Phenomenex (Torrance, Calif., USA). SunFire C18 reversed-phase columns, 3.5 μm, 100 mm×3.0 mm I.D. (cat no. 186002543) were purchased from Waters Corporation (Milford, Mass., USA).
(§6) This method may be performed utilizing the following equipment. Two-dimensional chromatography using an Agilent 1100 binary pump, an Agilent 1100 quaternary pump and two Valco Cheminert 6-port two position valves. Samples were introduced via a LEAP HTC PAL auto sampler with Peltier cooled stack maintained at 10° C. and a 20 μL sampling loop. The needle wash solutions for the autosampler are 10% trichloroacetic acid in water (w/v) for Wash 1 and 90:10 methanol:water for Wash 2. The analytical column (Sunfire) was maintained at 35° C. using a MicroTech Scientific Micro-LC Column Oven. The eluant was analyzed on an ABI Sciex API3000 triple quadrupole mass spectrometer with Turbo Ion Spray.
(§7) Two-dimensional chromatography was performed in parallel using distinct gradient elution conditions for on-line solid phase extraction and reversed-phase chromatography. The general design of the method was such that the first dimension was utilized for sample clean-up and capture of the analyte of interest followed by a brief coupling of both dimensions for elution from the first dimension onto the second dimension. The dimensions were subsequently uncoupled allowing for gradient elution of the analyte from the second dimension for quantification while simultaneously preparing the first dimension for the next sample in the sequence. […]

Assay [2] concerns malonyl-CoA levels in muscle tissue. As to the kind of experiment: Acute in vivo assessment of ACC inhibition: malonyl-CoA levels in muscle tissue (quadriceps). Also noted: species or system male Sprague-Dawley Rats. As to conditions: relative to chow-fed vehicle control group, % decrease +/- SEM. The protocol: as §1, §2, §3, §4, §5, §6, §7

Take `CCn1nc2c(c1C)OC1(CCN(C(=O)c3cc(C)c4[nH]cc(C)c4c3)CC1)CC2=O` [4.001]: the results for the IC50 against rat liver ACC and at recombinant human ACC2 were 9 nM and 29 nM, respectively.

As to `COc1ccc2cc(C(=O)N3CCC4(CC3)CC(=O)c3nn(C(C)(C)C)cc3O4)ccc2c1` [6.004], the IC50 (usually the concentration that inhibits the measured activity by half) turned out to be 77 nM on rat liver ACC and 38 nM on recombinant human ACC2.

As to `CC(C)n1cc2c(n1)C(=O)CC1(CCN(C(=O)c3ccc4cn(C)nc4c3)CC1)O2` [5.002], the figures for the IC50 on rat liver ACC and at recombinant human ACC2 were 201 nM and 147 nM, respectively.

Regarding `Cc1c(C(=O)N2CCC3(CC2)CC(=O)c2nn(C(C)(C)C)cc2O3)ccc2[nH]ncc12` [1.147], the results for the 50% inhibitory concentration (IC50) against rat liver ACC and on recombinant human ACC2 were 15 nM and 49 nM, respectively.

Consider `CCn1nc2c(c1C)OC1(CCN(C(=O)c3cc(C)c4[nH]ncc4c3)CC1)CC2=O` [1.023], for which the IC50 was 28 nM against rat liver ACC and 31 nM at recombinant human ACC2.

On to `CCOc1cc(C(=O)N2CCC3(CC2)CC(=O)c2nn(CC)c(C)c2O3)cc2c(CC)n[nH]c12` [1.119], for which the IC50 at rat liver ACC worked out at 13 nM; at recombinant human ACC2, 18 nM.

As for `CCCn1cc2c(n1)C(=O)CC1(CCN(C(=O)c3cc(C)c4[nH]ncc4c3)CC1)O2` [1.027], the concentration for half-maximal inhibition (IC50) was found to be 48 nM against rat liver ACC and 43 nM at recombinant human ACC2.

Regarding `CCOc1cc(C(=O)N2CCC3(CC2)CC(=O)c2nn(C(C)C)cc2O3)cc2cn[nH]c12` [1.123], the IC50 against rat liver ACC turned out to be 16 nM; at recombinant human ACC2, 14 nM.

For `CC(C)(C)n1cc2c(n1)C(=O)CC1(CCN(C(=O)c3ccc4[nH]ncc4c3)CC1)O2` [1.074], the IC50 against rat liver ACC amounted to 17 nM. The “Percent decrease in Liver Malonyl-CoA” value is listed as 34.97 (2.59) % in assay [1] (dose 1 mg/kg), 53.97 (1.19) % in assay [1] (dose 3 mg/kg), 70.74 (3.49) % in assay [1] (dose 10 mg/kg) and 63.60 (3.57) % in assay [1] (dose 30 mg/kg). For the same molecule, the “Percent decrease in Muscle Malonyl-CoA (quadriceps)” value in assay [2] (dose 1 mg/kg) is recorded as 2.34 (5.44) %; in assay [2] (dose 3 mg/kg) it was 24.42 (6.83) %; in assay [2] (dose 10 mg/kg) it was 49.00 (2.40) %; in assay [2] (dose 30 mg/kg), 57.06 (2.04) %.

Consider `CCC(C)n1cc2c(n1)C(=O)CC1(CCN(C(=O)c3ccc4[nH]nc(C)c4c3)CC1)O2` (centres unmarked) [1.141], for which the IC50 at rat liver ACC was 32 nM; on recombinant human ACC2, 19 nM.

Consider `Cc1cc(C(=O)N2CCC3(CC2)CC(=O)c2nn(C4CCCC4)cc2O3)cc2cn[nH]c12` [1.038], for which the IC50 on rat liver ACC worked out at 14 nM; on recombinant human ACC2, 9 nM.

As for `Cc1cc(C(=O)N2CCC3(CC2)CC(=O)c2nn(C(C)C)cc2O3)cc2cn[nH]c12` [1.022], the 50% inhibitory concentration (IC50) against rat liver ACC was 22 nM; on recombinant human ACC2, 28 nM.

With `Cc1n[nH]c2c(C)cc(C(=O)N3CCC4(CC3)CC(=O)c3nn(C5CCOC5)c(C)c3O4)cc12` (centres unmarked) [1.015], the IC50 on rat liver ACC came out at 21 nM; on recombinant human ACC2, 20 nM.

On to `CC(C)(C)n1cc2c(n1)C(=O)CC1(CCN(C(=O)c3ccc4ncsc4c3)CC1)O2` [10.002], for which the values for the concentration for half-maximal inhibition (IC50) on rat liver ACC and on recombinant human ACC2 were 46 nM and 25 nM, respectively.

Take `Cc1cc(C(=O)N2CCC3(CC2)CC(=O)c2nn(C4CCC4)cc2O3)cc2cn[nH]c12` [1.039]: the IC50 on rat liver ACC is 15 nM; on recombinant human ACC2, 13 nM.

With `CCC(C)n1nc2c(c1C)OC1(CCN(C(=O)c3ccc4[nH]nc(C)c4c3)CC1)CC2=O` (centres unmarked) [1.137], the IC50 at rat liver ACC was determined as 17 nM; on recombinant human ACC2, 9 nM.

For the molecule `Cc1nc2c(C)cc(C(=O)N3CCC4(CC3)CC(=O)c3nn(C(C)(C)C)cc3O4)cc2[nH]1` [3.003], the IC50 against rat liver ACC turned out to be 10 nM; on recombinant human ACC2, 4 nM.
